Data set [1] concerns rats. As to the kind of experiment: Turpentine-induced pleuritis in rats (Hurley). Format: in vivo. The settings on record: for Exudate / Inhibition: P <0.01.
Another data set deals with thrombocyte aggregation. Nature of the data set: Inhibition of thrombocyte aggregation from ADP in vitro (Born and Cross). The format is cell-based. The note with it: for inhibition of thrombocyte aggregation compared with Fraction 2 and sobrerol (in words): 160 to 1,280 micrograms/ml, ADP, in vitro; for inhibition at 160 µg/mL: final concentration 160 μg/ml; for inhibition at 160 µg/mL / inhibition at 320 µg/mL / inhibition at 640 µg/mL / inhibition at 1280 µg/mL: average of repeated tests; for inhibition at 320 µg/mL: final concentration 320 μg/ml; for inhibition at 640 µg/mL: final concentration 640 μg/ml; for inhibition at 1280 µg/mL: final concentration 1280 μg/ml.

The subject of data set [2] is rabbits. As to the kind of experiment: Inhibition of histamine-induced bronchospasm by intravenous perfusion in rabbits. The note with it: for Percentage of inhibition of the histamine-induced bronchospasm: histamine 100 micrograms/kg i.v., average of 4 animals; for inhibition of histamine-induced bronchospasm compared with Fraction 2 and sobrerol (in words): perfused intravenously 2.5 mls per kg b.w. per minute. The format is in vivo.

In another data set the test system is Staphylococcus aureus. As to the kind of experiment: Antibacterial activity (MIC), Staphylococcus aureus. Format: cell-based. The settings on record: for antibacterial activity, grade (in words): Gram-positive germs / overall; for antibacterial activity compared with Fraction 2 and sobrerol (in words): Staphylococcus aureus and Escherichia coli; for MIC: read-out: Minimum Inhibiting Concentration (MIC).

For data set [3], the system named is isolated Guinea-pig trachea. As to the kind of experiment: Relaxation of the isolated Guinea-pig trachea (Costantine). Format: cell-based. The settings on record: for activation at 125 µg/mL: 125 μg/ml; for activation at 125 µg/mL / activation at 500 µg/mL / activation at 2000 µg/mL: average of 4 preparations; for activation at 500 µg/mL: 500 μg/ml; for activation at 2000 µg/mL: 2,000 μg/ml; for relaxation of the smooth tracheal muscles, intensity compared with Fraction 2 and sobrerol (in words): in vitro, isolated Guinea-pig trachea; for bronchodilating activity, grade (in words): overall, in vitro and in vivo.

The subject of another data set is red blood cells of rats. As to the kind of experiment: Protection of red blood cells from haemolysis induced by Tween 80, in vitro. Format: cell-based. The note with it: Rattus norvegicus, Erythrocyte, Tween 80. From the text: (fiducial limits 95% : 518.0-760.11).
Data set [4] relates to rats. As to the kind of experiment: Carrageenin-induced paw oedema in rats (Winter). Format: in vivo, albino rats, COBS (Charles River) stock. The settings on record: for % inhibition of plantar oedema / inhibition of carrageenin paw oedema compared with Fraction 2 and sobrerol (in words): 30 mg/kg b.w. intraperitoneally; for % inhibition of plantar oedema: after 4 hours, 6 animals.

In a further data set the test system is Escherichia coli. Nature of the data set: Antibacterial activity (MIC), Escherichia coli. The format is cell-based. The settings on record: for MIC: read-out: Minimum Inhibiting Concentration (MIC); for antibacterial activity, grade (in words): Gram-negative germs.
The subject of another data set is dogs. Nature of the data set: Reduction of lung resistance in anesthetized dogs (Diamond). The settings on record: intravenous; for Percentage reduction of the Lung Resistance: average for 4 animals. The format is in vivo.
Data set [5] concerns isolated Guinea-pig trachea. As to the kind of experiment: Inhibition of histamine-induced contractions of the isolated Guinea-pig trachea. The note with it: histamine 10^-5 M, average. Format: cell-based. From the text: In addition, at concentrations in the range of from 10^-3 M to 5.10^-3 M, it inhibits the histamine-induced contractions of the isolated Guinea-pig trachea (Histamine 10^-5 M, see TABLE 3).

Another data set in a line: in vivo. The settings on record: mouse, LD50, mice, fiducial limits 95%.
Data set [6] relates to rabbits. As to the kind of experiment: Acute toxicity in rabbits (LD50, Litchfield and Wilcoxon). Format: in vivo.
Test in data set [7]: as above
Format: in vivo. The settings on record: rabbit, in vivo, fiducial limits 95%.

The next data set deals with mice. The note with it: for Gleason classification: mice.
The mark [8] stands for this setting: intravenous perfusion 15 minutes.
Where [9] appears, read: intravenous perfusion 30 minutes.
Where [10] appears, read: intravenous perfusion 60 minutes.
[11] abbreviates: Cavia porcellus, read-out: Percentage of relaxation of the isolated Guinea-pig trachea.
The mark [12] stands for this setting: read-out: Thrombocyte aggregation % INHIBITION

In brackets after ≈: the same amount, converted by molar mass. Entries after “also recorded” stand apart in the source; their conditions may differ. Where two headings read alike, the source gives them in different places.

`CC(=O)Oc1ccccc1C(=O)O` [Aspirin, aspirin, reference compound]: in the data set with rats [1] (100 mgs/kg intraperitoneal), the Exudate came to 1.30 mls and the Inhibition (usually the percentage by which the read-out fell short of the control) is recorded as 34%.

As for `CC1(C)C2CC=C(C=O)C1C2` (centres unmarked) [Myrtenal, myrtenal], in the data set on thrombocyte aggregation, the “inhibition of thrombocyte aggregation compared with Fraction 2 and sobrerol (in words)” value is “higher than those of Fraction 2 and sobrerol”; at 160 µg/mL the inhibition was 0%; the inhibition (usually the percentage by which the read-out fell short of the control) at 320 µg/mL worked out at 12%; the inhibition at 640 µg/mL was 20%. In the data set with thrombocyte aggregation, this molecule returned an inhibition at 1280 µg/mL of 75%. For the same molecule, the “Percentage of inhibition of the histamine-induced bronchospasm” value in the data set on rabbits [2] (setting [8]) is on record as 25.4%. Besides, the “Percentage of inhibition of the histamine-induced bronchospasm” value with rabbits [2] (setting [9]) came to 20.4%. In the data set on rabbits [2] (setting [10]), the “Percentage of inhibition of the histamine-induced bronchospasm” value came to 28.8%. For the same molecule, the “inhibition of histamine-induced bronchospasm compared with Fraction 2 and sobrerol (in words)” value in the data set with rabbits [2] was “statistically higher than that of sobrerol and slightly lower than that of Fraction 2”. In the data set with Staphylococcus aureus, the “antibacterial activity, grade (in words)” value was “pronounced antibacterial activity on Gram-positive germs”; the “antibacterial activity compared with Fraction 2 and sobrerol (in words)” value was “more active both than Fraction 2 and sobrerol”. For the same molecule, in the data set on Staphylococcus aureus (listed as myrtenal), the “antibacterial activity, grade (in words)” value is “marked antibacterial action”. In the data set on Staphylococcus aureus (Staphylococcus aureus), the MIC amounted to 200 mg/L (≈ 1.33 mM). Besides, in data set [3] (setting [11]), the activation at 125 µg/mL worked out at 7.5%, the activation at 500 µg/mL was 47.5% and the activation at 2000 µg/mL was found to be 62.5%. Also, in data set [3], the “relaxation of the smooth tracheal muscles, intensity compared with Fraction 2 and sobrerol (in words)” value is “statistically higher than that of the Fraction 2 and that of sobrerol”; the “bronchodilating activity, grade (in words)” value is “fair bronchodilating activity”. Besides, in the data set on red blood cells of rats (80 to 500 micrograms/ml, fiducial limits 95%=112.3-189.9, read-out: Effective Concentration 50%, protection from haemolysis), the EC50 is 157 mg/L (≈ 1.05 mM). Moreover, the “% inhibition of plantar oedema” value in the data set on rats [4] was 30%. In addition, the “anti-inflammatory action, grade (in words)” value in the data set with rats [4] (overall summary) is recorded as “anti-inflammatory action of poor magnitude”. Moreover, in the data set on rats [4] (rats), the “inhibition of carrageenin paw oedema compared with Fraction 2 and sobrerol (in words)” value is “more intense than that of Fraction 2 and also than that of sobrerol”. The MIC in the data set with Escherichia coli (Escherichia coli) stood at 800 mg/L (≈ 5.33 mM). Further, the “antibacterial activity, grade (in words)” value with Escherichia coli is “less intense on Gram-negative ones”.

Turning to `CC1=CCC(C(C)(C)O)CC1O` (centres unmarked) [Sobrerol, sobrerol, reference compound], in the data set with thrombocyte aggregation (setting [12]), the inhibition at 1000 µg/mL was 4%, the inhibition at 1500 µg/mL came out at 12%, the inhibition at 2000 µg/mL was 24% and the inhibition at 4000 µg/mL came out at 32%. The “Percentage of inhibition of the histamine-induced bronchospasm” value with rabbits [2] (setting [8]) was 2.15%. The “Percentage of inhibition of the histamine-induced bronchospasm” value in the data set on rabbits [2] (setting [9]) is reported as 1.15%. Moreover, the “Percentage of inhibition of the histamine-induced bronchospasm” value in the data set with rabbits [2] (setting [10]) is listed as 3.97%. In addition, the “Minimum Inhibiting Concentration (MIC)” value in the data set on Staphylococcus aureus (Staphylococcus aureus) was “.infin”. Moreover, in data set [3] (setting [11]), the percent relaxation of trachea at 125 µg/mL is 1.87%, the percent relaxation of trachea at 500 µg/mL is 5.62% and the percent relaxation of trachea at 2000 µg/mL was determined as 20.8%. Further, the “% inhibition of plantar oedema” value with rats [4] is given as 11%. Moreover, the “Minimum Inhibiting Concentration (MIC)” value with Escherichia coli (Escherichia coli) is on record as “.infin”.

Turning to `CC1=CC(=O)[C@@H]2C[C@H]1C2(C)C` [Verbenone, verbenone], the “inhibition of thrombocyte aggregation compared with Fraction 2 and sobrerol (in words)” value in the data set with thrombocyte aggregation is “higher than that of the terpenes of the Fraction 2 and of sobrerol”. For the same molecule, in the data set on thrombocyte aggregation, testing at 160 µg/mL gave an inhibition of 0%. The molecule further returned an inhibition at 320 µg/mL in the data set on thrombocyte aggregation of 6%. For the same molecule, the inhibition at 640 µg/mL with thrombocyte aggregation came out at 44%. In the data set on thrombocyte aggregation, this molecule had an inhibition at 1280 µg/mL of 100%. Moreover, the results for the “Percentage of inhibition of the histamine-induced bronchospasm” value in the data set on rabbits [2] (setting [8]), in the data set on rabbits [2] (setting [9]) and in the data set on rabbits [2] (setting [10]) were 36.25%, 46.27% and 73.32%, respectively. In addition, in the data set on rabbits [2], the “inhibition of histamine-induced bronchospasm compared with Fraction 2 and sobrerol (in words)” value was “statistically higher than that of the terpenes of the fraction 2 and also than that of sobrerol”. The “antibacterial activity, grade (in words)” value with Staphylococcus aureus and in the data set on Escherichia coli was “poor antibacterial activity” throughout. For the same molecule, the “antibacterial activity compared with Fraction 2 and sobrerol (in words)” value in the data set on Staphylococcus aureus was “as active as Fraction 2 and more active than sobrerol”. The MIC with Staphylococcus aureus (Staphylococcus aureus) and in the data set with Escherichia coli (Escherichia coli) was 800 mg/L (≈ 5.33 mM) in each case. For the same molecule, in [3] (setting [11]), the activation at 125 µg/mL stood at 26.2%. The activation at 500 µg/mL in data set [3] (setting [11]) was determined as 61.2%. Also, the activation at 2000 µg/mL in data set [3] (setting [11]) was 71.4%. For the same molecule, the “relaxation of the smooth tracheal muscles, intensity compared with Fraction 2 and sobrerol (in words)” value in [3] was “significantly higher than that of the terpenes of the fraction 2 and also than that of sobrerol”. Further, the “bronchodilating activity, grade (in words)” value in data set [3] is “pronounced bronchodilating action; also recorded: pronounced bronchodilating activity”. Further, the “Percentage reduction of the Lung Resistance” value with dogs (0.6 mgs/kg b.w.) is reported as 7.175%; with dogs (1.2 mgs/kg b.w.), 10.85%; with dogs (2.4 mgs/kg b.w.) it was 22.225%; in the data set with dogs (4.8 mgs/kg b.w.) it was 30.6%. Further, in the data set with dogs (0.6 to 4.8 mgs/kg b.w.), the “reduction of the lung resistances (in words)” value is recorded as “pronounced reduction of the lung resistances”. The “Percentage of inhibition of the histaminic spasm due to relaxation of the smooth tracheal muscles” value in data set [5] (5.10^-3 M) turned out to be 96.8%. In addition, in data set [5] (Cavia porcellus, 10^-3 M, read-out: Percentage of inhibition of the histaminic spasm due to relaxation of the smooth tracheal muscles), the inhibition at 1000 µM is 29.2%. The median lethal dose (LD50) (in general, the dose at which mortality reaches 50%) in “in vivo” (ip, female) is 325 mg/kg; in the data set “in vivo” (ip, male), 361 mg/kg; in “in vivo” (po, female) it was 1530 mg/kg; in the data set “in vivo” (po, male), 1410 mg/kg; in [7] (ip, female), 232 mg/kg; in data set [7] (ip, male), 310 mg/kg. For the same molecule, the LD50 in data set [7] (po, female) came out at 655 mg/kg; in data set [7] (po, male) it was 790 mg/kg. Also, the EC50 in the data set on red blood cells of rats (fiducial limits 95%: 518.0-760.11, read-out: effective concentration 50% (EC 50), protection from haemolysis) is 640 mg/L (≈ 4.26 mM). Further, the “antiexudative activity compared with aspirin (in words)” value in the data set with rats [1] (36 and 120 mg/kg b.w. intraperitoneally) is listed as “intense antiexudative activity in the experimental, turpentine-induced pleuritis (Hurley, J. V. et al., J. Path., 91, 575,1966) to a degree which can be compared to that of aspirin”. Moreover, the Exudate with rats [1] (36 mgs/kg intraperitoneal) is on record as 1.23 mls; in the data set on rats [1] (120 mgs/kg intraperitoneal), 0.97 mls. The Inhibition with rats [1] (36 mgs/kg intraperitoneal) was 37.6%; with rats [1] (120 mgs/kg intraperitoneal), 50.1%. The “% inhibition of plantar oedema” value in the data set on rats [4] stood at 29%. In addition, the “inhibition of carrageenin paw oedema compared with Fraction 2 and sobrerol (in words)” value in the data set on rats [4] (normal and suprarenalectomized rats) is “significantly improved over those of the fraction 2 and of sobrerol”. In addition, the Gleason classification entry in the data set on rabbits [6] (i.p.) is listed as “Poor”; in the data set with rabbits [6] (p.o.) it was “Poor”; in the data set on mice (i.p.), “Poor”; in the data set on mice (p.o.), “Slight”. Further, the “tolerability on the basis of acute toxicity data” value in the data set on mice (mice and rabbits, i.p. and p.o.) is on record as “well tolerated”.

Source of the values: patent US4190675A (priority 1976, dated 1980).
